According to patent EP1650209A1, “Griseusin derivatives and their use as antitumor agents” (Oncotest GmbH, priority 2004, dated 2006):
In brackets after ≈: the same amount, converted by molar mass.

Tests used:
Experiment in all cases: Proliferation inhibition of cancer cells (propidium iodide fluorescence)
Type in all cases: cell-based, human
MEXF 394NL = conditions: Melanoma, MEXF 394NL cell line
Experimental: (§1) Using various human cancer cells in vitro, the concentrations of the test compounds (A, B, C, D, E, F), which inhibit the proliferation of cancer cells by 50% (IC50) and 70% (IC70) were determined. Specifically, each cell line of bladder cancer (BXF 1218L and T-24), glioblastoma (CNXF 498NL), colic cancer (HCT-116 and HT-29), gastric cancer (GXF 251 L), head and neck cancer (HNXF 536L), non small cell lung cancer (LXF 1121L, LXF 289L, LXF 526L, LXF 529L, LXF 629L and H-460), mammary cancer (MAXF 401NL, MCF-7, MDA-231 and MDA-468), melanoma (MEXF 276L, MEXF 394NL, MEXF 462NL, MEXF 514L and MEXF 520L), ovary cancer (OVXF 1619L, OVXF 899L and OVCAR-3), pancreatic cancer (PAXF 1657L and PANC-1), prostate cancer (22Rv1, DU-145, LNCaP and PC3M), pleuramesothelioma (PXF 1752L), renal cancer (RXF 1781 L, RXF 393NL, RXF 486L and RXF 944L), and uterine cancer (UXF 1138L) is added to a 96-well microtiter plate at a density of 3.6-11.2x10^3 cells per well in RPMI-1640 medium containing 10% fetal calf serum and 0.1% gentamicin and incubated for 24 hours. After 24 hours RPMI-1640 medium containing 10% fetal calf serum and 0.1% gentamicin, together with a test compound, is added thereto. Then, this plate is incubated at 37°C for 4 days in a humidified atmosphere of air containing 5% CO2. Thereafter, the cell culture medium with or without drug was replaced by 200 µl of an aqueous PI solution (7 µg/ml propidium iodide). Applying a freeze thaw cycle to permeabilize intact cell walls, staining of DNA was achieved, and the fluorescence of each well was measured using the Cy-tofluor 4000 microplate reader (excitation 530 nm, emission 620 nm), giving a direct relationship to the total cell number. Proliferation inhibition is expressed as test versus untreated control (T/C-value [%]). IC50 and IC70 values were determined by plotting compound concentration versus cell viability.

LXFA 1121 L = conditions: Lung, non small cell, LXFA 1121 L cell line
Experimental: as §1

HT-29 = conditions: Colon, HT-29 cell line
Experimental: as §1

UXF 1138L = UXF 1138L cell line
Experimental: as §1

OVXF 899L = conditions: Ovary, OVXF 899L cell line
Experimental: as §1

BXF 1218L = conditions: Bladder, BXF 1218L cell line
Experimental: as §1

PC3M = conditions: Prostate, PC3M cell line
Experimental: as §1

22Rv1 = conditions: Prostate, 22Rv1 cell line
Experimental: as §1

RXF 393NL = conditions: Kidney, RXF 393NL cell line
Experimental: as §1

HNXF 536L = conditions: Head and Neck, HNXF 536L cell line
Experimental: as §1

HCT-116 = conditions: Colon, HCT-116 cell line
Experimental: as §1

MEXF 276L = conditions: Melanoma, MEXF 276L cell line
Experimental: as §1

RXF 486L = RXF 486L cell line
Experimental: as §1

C[C@@H]1CC(=O)[C@@H](O)[C@]2(O1)O[C@@H]1CC(=O)O[C@@H]1C1=C2C(=O)c2c(O)cccc2C1=O [Compound B, 4'-dehydro-deacetylgriseusin A]
IC50 (MEXF 394NL): 0.035 µg/mL (≈ 0.0874 µM)
IC70 (MEXF 394NL): 0.086 µg/mL (≈ 0.215 µM)
IC50 (LXFA 1121 L): 0.083 µg/mL (≈ 0.207 µM)
IC70 (LXFA 1121 L): 0.147 µg/mL (≈ 0.367 µM)
IC50 (HT-29): 0.114 µg/mL (≈ 0.285 µM)
IC70 (HT-29): 0.177 µg/mL (≈ 0.442 µM)
IC50 value (UXF 1138L; 4 days): 0.216 µg/mL (≈ 0.54 µM)
IC50 (UXF 1138L; Uterus): 0.216 µg/mL (≈ 0.54 µM)
IC70 (UXF 1138L; Uterus): 0.524 µg/mL (≈ 1.31 µM)
IC50 (OVXF 899L): 1.265 µg/mL (≈ 3.16 µM)
IC70 (OVXF 899L): 2.249 µg/mL (≈ 5.62 µM)
IC50 (BXF 1218L): 0.056 µg/mL (≈ 0.14 µM)
IC70 (BXF 1218L): 0.133 µg/mL (≈ 0.332 µM)
IC50 (PC3M): 0.402 µg/mL (≈ 1 µM)
IC70 (PC3M): 0.929 µg/mL (≈ 2.32 µM)
IC50 (22Rv1): 0.071 µg/mL (≈ 0.177 µM)
IC70 (22Rv1): 0.139 µg/mL (≈ 0.347 µM)
IC50 (RXF 393NL): 0.104 µg/mL (≈ 0.26 µM)
IC70 (RXF 393NL): 0.164 µg/mL (≈ 0.41 µM)
IC50 (HNXF 536L): 0.237 µg/mL (≈ 0.592 µM)
IC70 (HNXF 536L): 0.716 µg/mL (≈ 1.79 µM)
IC50 (HCT-116): 0.697 µg/mL (≈ 1.74 µM)
IC70 (HCT-116): 1.333 µg/mL (≈ 3.33 µM)
IC50 (MEXF 276L): 0.112 µg/mL (≈ 0.28 µM)
IC70 (MEXF 276L): 0.212 µg/mL (≈ 0.53 µM)
IC50 (RXF 486L; Kidney): 0.078 µg/mL (≈ 0.195 µM)
IC70 (RXF 486L; Kidney): 0.142 µg/mL (≈ 0.355 µM)
IC50 value (RXF 486L; 4 days): 0.078 µg/mL (≈ 0.195 µM)
